Data from PubChem BioAssay AID1259411 (Chemical Carcinogenesis Research Information System (CCRIS), 2018).
Calls of active or inactive are those of the source. How the calls were made is not given here.

Tested on: rodent carcinogenicity bioassays, tumor incidence
Assay: CCRIS carcinogenicity studies
How it was run: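 NCI-built, expert-reviewed records of carcinogenicity and related test outcomes (mutagenicity, tumor promotion/inhibition) compiled from published and report sources, historical span 1985-2011, not updated.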

**Q.** Which carcinogen call (Species: MOUSE, Strain/Sex: B6C3F1/FEMALE, Route: ORAL, Dose: 0, 500, 1000 PPM IN DIET FOR 103 WK (STUDY DURATION: 103-105 WK), Dose: 0, 500, 1000 PPM IN DIET FOR 103 WK (STUDY DURATION: 103-105 WK)) does the source give for CN(C)C(=O)Nc1cccc(C(F)(F)F)c1 here?
**A.** inactive; negative

**Q.** What about the carcinogen call (Species: MOUSE, Strain/Sex: B6C3F1/FEMALE, Route: ORAL, Dose: 0, 500, 1000 PPM IN DIET FOR 103 WK (STUDY DURATION: 103-105 WK), Dose: 0, 500, 1000 PPM IN DIET FOR 103 WK (STUDY DURATION: 103-105 WK), Tumor Site: Type of Lesion: LIVER: HEPATOCELLULAR CARCINOMA OR ADENOMA) of the same molecule?
**A.** equivocal

**Q.** What about the carcinogen call (Species: Mouse, Strain/Sex: CR CD-1/Female (60/Group), Route: Oral, Dose: 0, 10, 500, 2000 ppm of 96.1% fluometuron in diet for 104 wk, study duration 104 wk, Dose: 0, 10, 500, 2000 ppm of 96.1% fluometuron in diet for 104 wk, study duration 104 wk, Tumor Site: Type of Lesion: Lymphocytic lymphoma (highest dose only)) of the same molecule?
**A.** active; positive

**Q.** What about the carcinogen call (Species: Mouse, Strain/Sex: CR CD-1/Male (60/Group), Route: Oral, Dose: 0, 10, 500, 2000 ppm of 96.1% fluometuron in diet for 104 wk, study duration 104 wk, Dose: 0, 10, 500, 2000 ppm of 96.1% fluometuron in diet for 104 wk, study duration 104 wk, Tumor Site: Type of Lesion: Lung: Primary pulmonary neoplasia) of the same molecule?
**A.** active; positive

**Q.** And the carcinogen call (Species: RAT, Strain/Sex: F344/FEMALE, Route: ORAL, Dose: 0, 125, 250 PPM IN DIET FOR 103 WK (STUDY DURATION: 103-105 WK), Dose: 0, 125, 250 PPM IN DIET FOR 103 WK (STUDY DURATION: 103-105 WK))?
**A.** inactive; negative

**Q.** What about the carcinogen call (Species: RAT, Strain/Sex: F344/MALE, Route: ORAL, Dose: 0, 125, 250 PPM IN DIET FOR 103 WK (STUDY DURATION: 103-105 WK), Dose: 0, 125, 250 PPM IN DIET FOR 103 WK (STUDY DURATION: 103-105 WK)) of the same molecule?
**A.** inactive; negative

**Q.** What about the carcinogen call (Species: Rat, Strain/Sex: Fischer 344 CD-F/Female (60/Group), Route: Oral, Dose: 0, 10, 300, 1000 ppm of 96.1% fluometuron in diet for 2 yr, study duration 2 yr, Dose: 0, 10, 300, 1000 ppm of 96.1% fluometuron in diet for 2 yr, study duration 2 yr) of the same molecule?
**A.** inactive; negative

**Q.** And the carcinogen call (Species: Rat, Strain/Sex: Fischer 344 CD-F/Male (60/Group), Route: Oral, Dose: 0, 10, 300, 1000 ppm of 96.1% fluometuron in diet for 2 yr, study duration 2 yr, Dose: 0, 10, 300, 1000 ppm of 96.1% fluometuron in diet for 2 yr, study duration 2 yr)?
**A.** inactive; negative

**Q.** How did the carcinogen call (Species: Mouse, Strain/Sex: CD-1 (ICR)/Female (51/Group), Route: Oral, Dose: 0, 37.8, 368.1, 850.1 mg/kg/day of 94.7% flumiclorac pentyl in diet for 78 wk, study duration 78 wk, Dose: 0, 37.8, 368.1, 850.1 mg/kg/day of 94.7% flumiclorac pentyl in diet for 78 wk, study duration 78 wk) turn out when CCCCCOC(=O)COc1cc(N2C(=O)C3=C(CCCC3)C2=O)c(F)cc1Cl was run?
**A.** inactive; negative

**Q.** And the carcinogen call (Species: Mouse, Strain/Sex: CD-1 (ICR)/Male (51/Group), Route: Oral, Dose: 0, 31.5, 307.9, 731.4 mg/kg/day of 94.7% flumiclorac pentyl in diet for 78 wk, study duration 78 wk, Dose: 0, 31.5, 307.9, 731.4 mg/kg/day of 94.7% flumiclorac pentyl in diet for 78 wk, study duration 78 wk)?
**A.** inactive; negative

**Q.** And the carcinogen call (Species: Rat, Strain/Sex: Crj:CD(SD)/Female (50/Group), Route: Oral, Dose: 0, 4.3, 43.6, 443.8, 919.4 mg/kg/day of 94.4% flumiclorac pentyl in diet for 24 mo, study duration 24 mo, Dose: 0, 4.3, 43.6, 443.8, 919.4 mg/kg/day of 94.4% flumiclorac pentyl in diet for 24 mo, study duration 24 mo)?
**A.** inactive; negative

**Q.** What about the carcinogen call (Species: Rat, Strain/Sex: Crj:CD(SD)/Male (50/Group), Route: Oral, Dose: 0, 3.5, 35.4, 360.4, 744.9 mg/kg/day of 94.4% flumiclorac pentyl in diet for 24 mo, study duration 24 mo, Dose: 0, 3.5, 35.4, 360.4, 744.9 mg/kg/day of 94.4% flumiclorac pentyl in diet for 24 mo, study duration 24 mo) of the same molecule?
**A.** inactive; negative

**Q.** Which carcinogen call (Species: MOUSE, Strain/Sex: B6AKF1/MALE,FEMALE, Route: GAVAGE/ORAL, Dose: 215 MG/KG IN GELATIN FROM DAY 7-28 OF LIFE THEN 646 PPM IN DIET, Tumor Site: Type of Lesion: LIVER: HEPATOMA, LYMPHATIC SYSTEM: LYMPHOMA) does the source give for S=C1NCCN1 here?
**A.** active; positive

**Q.** What about the carcinogen call (Species: MOUSE, Strain/Sex: B6C3F1/FEMALE, Route: ORAL, Dose: 0, 100, 330, 1000 PPM IN FEED FOR 24 MO, ADMINISTRATION BEGUN AT 8 WK OF AGE TO ANIMALS EXPOSED PERINATALLY BY ORAL, Dose: 0, 100, 330, 1000 PPM IN FEED FOR 24 MO, ADMINISTRATION BEGUN AT 8 WK OF AGE TO ANIMALS EXPOSED PERINATALLY BY ORAL, Tumor Site: Type of Lesion: LIVER: HEPATOCELLULAR ADENOMA, HEPATOCELLULAR CARCINOMA, PITUITARY GLAND, PARS DISTALIS: ADENOMA, THYROID GLAND: FOLLICU, Tumor Site: Type of Lesion: LIVER: HEPATOCELLULAR ADENOMA, HEPATOCELLULAR CARCINOMA, PITUITARY GLAND, PARS DISTALIS: ADENOMA, THYROID GLAND: FOLLICU) of the same molecule?
**A.** active; positive

**Q.** And the carcinogen call (Species: MOUSE, Strain/Sex: B6C3F1/FEMALE, Route: ORAL, Dose: 0, 330, 1000 PPM IN FEED FOR 24 MO (STUDY DURATION: 2 YR), Dose: 0, 330, 1000 PPM IN FEED FOR 24 MO (STUDY DURATION: 2 YR), Tumor Site: Type of Lesion: LIVER: HEPATOCELLULAR ADENOMA, HEPATOCELLULAR CARCINOMA, PITUITARY GLAND, PARS DISTALIS: ADENOMA, THYROID GLAND: FOLLICU, Tumor Site: Type of Lesion: LIVER: HEPATOCELLULAR ADENOMA, HEPATOCELLULAR CARCINOMA, PITUITARY GLAND, PARS DISTALIS: ADENOMA, THYROID GLAND: FOLLICU)?
**A.** active; positive

**Q.** And the carcinogen call (Species: MOUSE, Strain/Sex: B6C3F1/MALE,FEMALE, Route: GAVAGE/ORAL, Dose: 215 MG/KG IN GELATIN FROM DAY 7-28 OF LIFE THEN 646 PPM IN DIET, Tumor Site: Type of Lesion: LIVER: HEPATOMA, LYMPHATIC SYSTEM: LYMPHOMA)?
**A.** active; positive

**Q.** And the carcinogen call (Species: MOUSE, Strain/Sex: B6C3F1/MALE, Route: ORAL, Dose: 0, 100, 330, 1000 PPM IN FEED FOR 24 MO, ADMINISTRATION BEGUN AT 8 WK OF AGE TO ANIMALS EXPOSED PERINATALLY BY ORAL, Dose: 0, 100, 330, 1000 PPM IN FEED FOR 24 MO, ADMINISTRATION BEGUN AT 8 WK OF AGE TO ANIMALS EXPOSED PERINATALLY BY ORAL, Tumor Site: Type of Lesion: LIVER: HEPATOCELLULAR CARCINOMA, HEPATOCELLULAR ADENOMA OR CARCINOMA, THYROID GLAND: FOLLICULAR CELL ADENOMA, FOLLICULAR)?
**A.** active; positive

**Q.** And the carcinogen call (Species: MOUSE, Strain/Sex: B6C3F1/MALE, Route: ORAL, Dose: 0, 330, 1000 PPM IN FEED FOR 24 MO (STUDY DURATION: 2 YR), Dose: 0, 330, 1000 PPM IN FEED FOR 24 MO (STUDY DURATION: 2 YR), Tumor Site: Type of Lesion: LIVER: HEPATOCELLULAR CARCINOMA, PITUITARY GLAND, PARS DISTALIS: ADENOMA, THYROID GLAND: FOLLICULAR CELL ADENOMA, Tumor Site: Type of Lesion: LIVER: HEPATOCELLULAR CARCINOMA, PITUITARY GLAND, PARS DISTALIS: ADENOMA, THYROID GLAND: FOLLICULAR CELL ADENOMA)?
**A.** active; positive

**Q.** What about the carcinogen call (Species: RAT, Strain/Sex: F344/FEMALE, Route: ORAL, Dose: 0, 25, 83, 250 PPM IN FEED FOR 24 MO, ADMINISTRATION BEGUN AT 8 WK OF AGE TO ANIMALS EXPOSED PERINATALLY BY ORAL DOS, Dose: 0, 25, 83, 250 PPM IN FEED FOR 24 MO, ADMINISTRATION BEGUN AT 8 WK OF AGE TO ANIMALS EXPOSED PERINATALLY BY ORAL DOS, Tumor Site: Type of Lesion: THYROID GLAND: FOLLICULAR CELL ADENOMA, FOLLICULAR CELL CARCINOMA) of the same molecule?
**A.** active; positive

**Q.** What about the carcinogen call (Species: RAT, Strain/Sex: F344/FEMALE, Route: ORAL, Dose: 0, 83, 250 PPM IN FEED FOR 24 MO (STUDY DURATION: 2 YR), Dose: 0, 83, 250 PPM IN FEED FOR 24 MO (STUDY DURATION: 2 YR), Tumor Site: Type of Lesion: THYROID GLAND: FOLLICULAR CELL ADENOMA, FOLLICULAR CELL CARCINOMA) of the same molecule?
**A.** active; positive

**Q.** And the carcinogen call (Species: RAT, Strain/Sex: F344/MALE, Route: ORAL, Dose: 0, 25, 83, 250 PPM IN FEED FOR 24 MO, ADMINISTRATION BEGUN AT 8 WK OF AGE TO ANIMALS EXPOSED PERINATALLY BY DOSES TO, Dose: 0, 25, 83, 250 PPM IN FEED FOR 24 MO, ADMINISTRATION BEGUN AT 8 WK OF AGE TO ANIMALS EXPOSED PERINATALLY BY DOSES TO, Tumor Site: Type of Lesion: THYROID GLAND: FOLLICULAR CELL ADENOMA, FOLLICULAR CELL CARCINOMA)?
**A.** active; positive

**Q.** And the carcinogen call (Species: RAT, Strain/Sex: F344/MALE, Route: ORAL, Dose: 0, 83, 250 PPM IN FEED FOR 24 MO (STUDY DURATION: 2 YR), Dose: 0, 83, 250 PPM IN FEED FOR 24 MO (STUDY DURATION: 2 YR), Tumor Site: Type of Lesion: THYROID GLAND: FOLLICULAR CELL ADENOMA, FOLLICULAR CELL CARCINOMA)?
**A.** active; positive

**Q.** And the carcinogen call (Species: RAT, Strain/Sex: STRAIN-CD/MALE,FEMALE, Route: ORAL, Dose: 175, 350 PPM IN DIET FOR 78 WK, Tumor Site: Type of Lesion: THYROID GLAND: FOLLICULAR CARCINOMA)?
**A.** active; positive
